Data from patent US20080199413A1, “Novel Use of Organic Compounds” (priority 2005, published 2008).

Test system: human dermal fibroblasts
Experiment: UV-A radiation-induced mtDNA common deletion in human dermal fibroblasts (nested PCR)
Format: cell-based
Details: for Protection of fibroblasts against the UV-A radiation-induced generation of the common deletion (in words): overall finding of 3 experiments; for Prevalence of mtDNA deletion relative to untreated cells: representative experiment
Source text: Sunlight (Systems Dr. […]) irradiation device. […] The cells were then harvested by trypsinisation. […] Dermatol. […] (7293-7316); [NT] (13928-13905); [NT] (7901-7920); [NT] (13650-13631); [NT] (219-238); C2, [NT]

[1] = UV-A radiation + 0.25 μM carotenoid, after 1 week
[2] = UV-A radiation + 0.5 μM carotenoid, after 1 week
[3] = UV-A radiation + 1.0 μM carotenoid, after 1 week
[4] = UV-A radiation + 2.0 μM carotenoid, after 1 week
[5] = UV-A radiation + 3.0 μM carotenoid, after 1 week
[6] = all doses tested (0.25-3 μM), after 1 week

Compound	Protection of fibroblasts against the UV-A radiation-induced generation of the common deletion (in words)	Prevalence of mtDNA deletion relative to untreated cells [1]	Prevalence of mtDNA deletion relative to untreated cells [2]	Prevalence of mtDNA deletion relative to untreated cells [3]	Prevalence of mtDNA deletion relative to untreated cells [4]	Prevalence of mtDNA deletion relative to untreated cells [5]	Effect on UV-A radiation-induced formation of the common deletion (in words) [6]	Effect on UV-A radiation-induced formation of the common deletion (in words) (at 0.5, 1 μM and 2 μM, after 1 week)	Prevalence of mtDNA deletion relative to untreated cells (UV-A radiation + 0.1 μM carotenoid, after 2 weeks)	Prevalence of mtDNA deletion relative to untreated cells (UV-A radiation + 0.25 μM carotenoid, after 2 weeks)	Prevalence of mtDNA deletion relative to untreated cells (UV-A radiation + 0.5 μM carotenoid, after 2 weeks)	Prevalence of mtDNA deletion relative to untreated cells (UV-A radiation + 1.0 μM carotenoid, after 2 weeks)	Prevalence of mtDNA deletion relative to untreated cells (UV-A radiation + 2.0 μM carotenoid, after 2 weeks)	Prevalence of mtDNA deletion relative to untreated cells (UV-A radiation + 3.0 μM carotenoid, after 2 weeks)	Effect on UV-A radiation-induced induction of the common deletion (in words) (all concentrations tested, after 2 weeks)
CC1=C(/C=C/C(C)=C/C=C/C(C)=C/C=C/C=C(C)/C=C/C=C(C)/C=C/C2=C(C)C[C@@H](O)CC2(C)C)C(C)(C)C[C@H](O)C1 [Zeaxanthin, zeaxanthin, reference compound]	no effect	–	–	–	–	–	–	–	–	–	–	–	–	–	–
CC1=C[C@H](O)CC(C)(C)[C@H]1/C=C/C(C)=C/C=C/C(C)=C/C=C/C=C(C)/C=C/C=C(C)/C=C/C1=C(C)C[C@@H](O)CC1(C)C [lutein]	found to protect	0.98	0.27	0.71	0.37	0.59	completely prevented	–	–	–	–	–	–	–	–
CC(C)=CCC/C(C)=C/C=C/C(C)=C/C=C/C(C)=C/C=C/C=C(C)/C=C/C=C(C)/C=C/C=C(\C)CCC=C(C)C [lycopene]	consistently found to protect	2.90	1.22	1.53	1.53	2.52	inhibits	Complete protection	–	–	–	–	–	–	–
CC1=C(/C=C/C(C)=C/C=C/C(C)=C/C=C/C=C(C)/C=C/C=C(C)/C=C/C2=C(C)C[C@@H](O)CC2(C)C)C(C)(C)CCC1 [β-cryptoxanthin]	–	–	–	–	–	–	–	–	0.80	0.64	0.25	0.62	0.25	1.03	abrogated
